Values quoted from earlier work, collected in patent US20240366545A1, “ANTIBACTERIAL PORPHYRIN NANOPARTICLES AND METHODS FOR MAKING AND USING THE SAME” (priority 2021, published 2024).

Test system: normal mammalian cells

CCCCCCCCCCCCCCCC[N+](C)(C)C.[Br-] [CTAB, cetyl trimethylammonium bromide]
toxic concentration: ≥ 10 µM
